Experimental data reported in patent US20260262643A1, “HERBICIDAL BENZOXAZINES” (FMC CORPORATION, priority 2022, published 2026).

What was measured:
blackgrass [1] = assay: Test C preemergence; format: in vivo, Alopecurus myosuroides; details: 0 to 100 scale (0 no effect, 100 complete control); for Blackgrass plant response rating: preemergence
How it was run: (§1)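 Pre: seeds in loam/sand, directed soil spray. Post: 1–2 leaf plants, 2–10 cm. Cmpd in non-phytotoxic solvent + surfactant. Greenhouse 10 d; visual rating vs untreated, 0 = none, 100 = complete control.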

barnyardgrass [2] = assay: Test C preemergence; format: in vivo, Echinochloa crusgalli; details: 0 to 100 scale (0 no effect, 100 complete control); for Barnyardgrass plant response rating: preemergence
How it was run: as §1

ryegrass, Italian [3] = assay: Test C preemergence; format: in vivo, Lolium multiflorum; details: preemergence, 0 to 100 scale (0 no effect, 100 complete control)
How it was run: as §1

ragweed [4] = assay: Test C preemergence; format: in vivo, Ambrosia artemisiifolia; details: preemergence, 0 to 100 scale (0 no effect, 100 complete control)
How it was run: as §1

corn [5] = assay: Test C preemergence; format: in vivo, Zea mays; details: preemergence, 0 to 100 scale (0 no effect, 100 complete control)
How it was run: as §1

kochia [6] = assay: Test C postemergence; format: in vivo, Bassia scoparia; details: 10 days
How it was run: as §1

ragweed [7] = assay: Test C postemergence; format: in vivo, Ambrosia artemisiifolia; details: 10 days
How it was run: as §1

oat, wild [8] = assay: Test C postemergence; format: in vivo, Avena fatua; details: 10 days
How it was run: as §1

green foxtail [9] = assay: Test C preemergence; format: in vivo, Setaria viridis; details: preemergence, 0 to 100 scale (0 no effect, 100 complete control)
How it was run: as §1

ducksalad = assay: Test D flooded paddy test; format: in vivo, Heteranthera limosa; details: 250 g ai/ha, applied to paddy water, visual rating after 13 to 14 days, scale 0 to 100 (0 no effect, 100 complete control)
How it was run: (§2)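 Plants at the 2-leaf stage were grown in pots flooded to 3 cm, and compound was applied directly into the paddy water, with depth kept throughout. After 13–14 days in a greenhouse, injury was rated visually against untreated controls on a 0–100 scale (100 = complete control); a dash means not tested.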

barnyardgrass [10] = assay: Test C postemergence; format: in vivo, Echinochloa crusgalli; details: 10 days
How it was run: as §1

blackgrass [11] = assay: Test C postemergence; format: in vivo, Alopecurus myosuroides; details: 10 days
How it was run: as §1

kochia [12] = assay: Test C preemergence; format: in vivo, Bassia scoparia; details: preemergence, 0 to 100 scale (0 no effect, 100 complete control)
How it was run: as §1

soybean [13] = assay: Test C preemergence; format: in vivo, Glycine max; details: preemergence, 0 to 100 scale (0 no effect, 100 complete control)
How it was run: as §1

horseweed = assay: Test C postemergence; format: in vivo, Erigeron canadensis; details: 10 days
How it was run: as §1

barnyardgrass [14] = assay: Test D flooded paddy test; format: in vivo, Echinochloa crus-galli; details: 250 g ai/ha, applied to paddy water, visual rating after 13 to 14 days, scale 0 to 100 (0 no effect, 100 complete control)
How it was run: as §2

ryegrass, Italian [15] = assay: Test C postemergence; format: in vivo, Lolium multiflorum; details: 10 days
How it was run: as §1

oat, wild [16] = assay: Test C preemergence; format: in vivo, Avena fatua; details: preemergence, 0 to 100 scale (0 no effect, 100 complete control)
How it was run: as §1

soybean [17] = assay: Test C postemergence; format: in vivo, Glycine max; details: 10 days
How it was run: as §1

corn [18] = assay: Test C postemergence; format: in vivo, Zea mays; details: 10 days
How it was run: as §1

wheat [19] = assay: Test C preemergence; format: in vivo, Triticum aestivum; details: preemergence, 0 to 100 scale (0 no effect, 100 complete control)
How it was run: as §1

pigweed, palmer [20] = assay: Test C postemergence; format: in vivo, Amaranthus palmeri; details: 10 days
How it was run: as §1

green foxtail [21] = assay: Test C postemergence; format: in vivo, Setaria viridis; details: 10 days
How it was run: as §1

pigweed, palmer [22] = assay: Test C preemergence; format: in vivo, Amaranthus palmeri; details: preemergence, 0 to 100 scale (0 no effect, 100 complete control)
How it was run: as §1

wheat [23] = assay: Test C postemergence; format: in vivo, Triticum aestivum; details: 10 days
How it was run: as §1

sedge, umbrella = assay: Test D flooded paddy test; format: in vivo, Cyperus difformis; details: 250 g ai/ha, applied to paddy water, visual rating after 13 to 14 days, scale 0 to 100 (0 no effect, 100 complete control)
How it was run: as §2

rice = assay: Test D flooded paddy test; format: in vivo, Oryza sativa; details: 250 g ai/ha, applied to paddy water, visual rating after 13 to 14 days, scale 0 to 100 (0 no effect, 100 complete control)
How it was run: as §2

galium = assay: Test C postemergence; format: in vivo, Galium aparine; details: 10 days
How it was run: as §1

[24] = Preemergence, 500 g ai/ha, visual rating after 10 days
[25] = 125 g ai/ha, postemergence, 0 to 100 scale, 0 no effect, 100 complete control
[26] = Postemergence, 500 g ai/ha, visual 0 to 100 scale (0 no effect, 100 complete control)
[27] = 500 g ai/ha, postemergence, 0 to 100 scale (0 no effect, 100 complete control)
[28] = Postemergence, 125 g ai/ha, 0 to 100 scale (0 no effect, 100 complete control)

Compound: Cc1cccc2c1O[C@@H](C)CN2C(=O)c1cccc(-n2cnc(C(C)(C)O)n2)c1 [Compound 278]
- Plant response rating, Blackgrass (blackgrass [1]; [24]): 90
- Blackgrass plant response rating (blackgrass [1]; Test C, 125 g ai/ha): 90
- Plant response rating, Barnyardgrass (barnyardgrass [2]; [24]): 100
- Barnyardgrass plant response rating (barnyardgrass [2]; Test C, 125 g ai/ha): 100
- Ryegrass, Italian plant response rating (ryegrass, Italian [3]; 500 g ai/ha): 100
- Ryegrass, Italian plant response rating (ryegrass, Italian [3]; Test C, 125 g ai/ha): 80
- Ragweed plant response rating (ragweed [4]; 500 g ai/ha): 80
- Ragweed plant response rating (ragweed [4]; Test C, 125 g ai/ha): 70
- Corn plant response rating (corn [5]; 500 g ai/ha): 80
- Plant response rating, Kochia (kochia [6]; [25]): 80
- Plant response rating, Ragweed (ragweed [7]; [25]): 70
- Plant response rating, Oat, Wild (oat, wild [8]; [25]): 80
- Foxtail, Green plant response rating (green foxtail [9]; 500 g ai/ha): 100
- Foxtail, Green plant response rating (green foxtail [9]; Test C, 125 g ai/ha): 100
- Plant response rating, Ducksalad (Flood) (ducksalad): 100
- Plant response rating, Barnyardgrass (barnyardgrass [10]; [25]): 50
- Plant response rating, Barnyardgrass (barnyardgrass [10]; [26]): 90
- Plant response rating, Blackgrass (blackgrass [11]; [25]): 90
- Plant response rating, Blackgrass (blackgrass [11]; [26]): 90
- Kochia plant response rating (kochia [12]; 500 g ai/ha): 100
- Kochia plant response rating (kochia [12]; Test C, 125 g ai/ha): 90
- Soybean plant response rating (soybean [13]; 500 g ai/ha): 100
- Soybean plant response rating (soybean [13]; Test C, 125 g ai/ha): 90
- Plant response rating, Horseweed (horseweed; [25]): 0
- Plant response rating, Horseweed (horseweed; [26]): 50
- Plant response rating, Barnyardgrass (Flood) (barnyardgrass [14]): 45
- Plant response rating, Ryegrass, Italian (ryegrass, Italian [15]; [25]): 80
- Oat, Wild plant response rating (oat, wild [16]; 500 g ai/ha): 90
- Oat, Wild plant response rating (oat, wild [16]; Test C, 125 g ai/ha): 80
- Plant response rating, Soybean (soybean [17]; [25]): 100
- Plant response rating, Corn (corn [18]; [25]): 50
- Plant response rating, Corn (corn [18]; [26]): 90
- Wheat plant response rating (wheat [19]; 500 g ai/ha): 100
- Wheat plant response rating (wheat [19]; Test C, 125 g ai/ha): 50
- Plant response rating, Pigweed, Palmer (pigweed, palmer [20]; [25]): 50
- Plant response rating, Foxtail, Green (green foxtail [21]; [25]): 50
- Plant response rating, Foxtail, Green (green foxtail [21]; [26]): 90
- Pigweed, Palmer plant response rating (pigweed, palmer [22]; 500 g ai/ha): 100
- Pigweed, Palmer plant response rating (pigweed, palmer [22]; Test C, 125 g ai/ha): 100
- Plant response rating, Wheat (wheat [23]; [25]): 70
- Plant response rating, Sedge, Umbrella (Flood) (sedge, umbrella): 100
- Plant response rating, Rice (Flood) (rice): 15
- Plant response rating, Galium (galium; [25]): 100
- Plant response rating, Galium (galium; [26]): 100

Compound: Cc1cccc2c1O[C@@H](C)CN2C(=O)c1cccc(-n2cnc(N)n2)c1 [Compound 308]
- Blackgrass plant response rating (blackgrass [1]; 500 g ai/ha): 30
- Blackgrass plant response rating (blackgrass [1]; Test C, 125 g ai/ha): 0
- Barnyardgrass plant response rating (barnyardgrass [2]; 500 g ai/ha): 50
- Barnyardgrass plant response rating (barnyardgrass [2]; Test C, 125 g ai/ha): 0
- Ryegrass, Italian plant response rating (ryegrass, Italian [3]; 500 g ai/ha): 70
- Ryegrass, Italian plant response rating (ryegrass, Italian [3]; Test C, 125 g ai/ha): 30
- Ragweed plant response rating (ragweed [4]; 500 g ai/ha): 20
- Ragweed plant response rating (ragweed [4]; Test C, 125 g ai/ha): 30
- Corn plant response rating (corn [5]; 500 g ai/ha): 0
- Corn plant response rating (corn [5]; Test C, 125 g ai/ha): 0
- Plant response rating, Kochia (kochia [6]; [27]): 20
- Plant response rating, Kochia (kochia [6]; [28]): 20
- Plant response rating, Ragweed (ragweed [7]; [27]): 30
- Plant response rating, Ragweed (ragweed [7]; [28]): 0
- Plant response rating, Oat, Wild (oat, wild [8]; [27]): 0
- Plant response rating, Oat, Wild (oat, wild [8]; [28]): 0
- Foxtail, Green plant response rating (green foxtail [9]; 500 g ai/ha): 90
- Foxtail, Green plant response rating (green foxtail [9]; Test C, 125 g ai/ha): 30
- Plant response rating, Ducksalad (Flood) (ducksalad): 0
- Plant response rating, Barnyardgrass (barnyardgrass [10]; [27]): 30
- Plant response rating, Barnyardgrass (barnyardgrass [10]; [28]): 10
- Plant response rating, Blackgrass (blackgrass [11]; [27]): 60
- Plant response rating, Blackgrass (blackgrass [11]; [28]): 10
- Kochia plant response rating (kochia [12]; 500 g ai/ha): 20
- Kochia plant response rating (kochia [12]; Test C, 125 g ai/ha): 0
- Soybean plant response rating (soybean [13]; 500 g ai/ha): 0
- Soybean plant response rating (soybean [13]; Test C, 125 g ai/ha): 0
- Plant response rating, Horseweed (horseweed; [27]): 0
- Plant response rating, Horseweed (horseweed; [28]): 20
- Plant response rating, Barnyardgrass (Flood) (barnyardgrass [14]): 0
- Plant response rating, Ryegrass, Italian (ryegrass, Italian [15]; [27]): 20
- Plant response rating, Ryegrass, Italian (ryegrass, Italian [15]; [28]): 0
- Oat, Wild plant response rating (oat, wild [16]; 500 g ai/ha): 70
- Oat, Wild plant response rating (oat, wild [16]; Test C, 125 g ai/ha): 0
- Plant response rating, Soybean (soybean [17]; [27]): 100
- Plant response rating, Soybean (soybean [17]; [28]): 90
- Plant response rating, Corn (corn [18]; [27]): 40
- Plant response rating, Corn (corn [18]; [28]): 10
- Wheat plant response rating (wheat [19]; 500 g ai/ha): 30
- Wheat plant response rating (wheat [19]; Test C, 125 g ai/ha): 0
- Plant response rating, Pigweed, Palmer (pigweed, palmer [20]; [27]): 50
- Plant response rating, Pigweed, Palmer (pigweed, palmer [20]; [28]): 10
- Plant response rating, Foxtail, Green (green foxtail [21]; [27]): 50
- Plant response rating, Foxtail, Green (green foxtail [21]; [28]): 20
- Pigweed, Palmer plant response rating (pigweed, palmer [22]; 500 g ai/ha): 80
- Pigweed, Palmer plant response rating (pigweed, palmer [22]; Test C, 125 g ai/ha): 20
- Plant response rating, Wheat (wheat [23]; [27]): 20
- Plant response rating, Wheat (wheat [23]; [28]): 10
- Plant response rating, Sedge, Umbrella (Flood) (sedge, umbrella): 0
- Plant response rating, Rice (Flood) (rice): 0
- Plant response rating, Galium (galium; [27]): 80
- Plant response rating, Galium (galium; [28]): 70
